The source of these data is ChEMBL document CHEMBL3639255, “Bivalent diazo bicyclic Smac mimetics and the uses thereof” (2014).

The target of experiment [1] is Baculoviral IAP repeat-containing protein 3 (Homo sapiens, UniProt Q13489). The experiment is described as follows: (§1) Fluorescence Polarization-Based Assays: An in vitro fluorescence polarization (FP) based binding assay was used to test the binding ability of the compounds of the present invention to certain IAP proteins (Nikolovska-Coleska et al., Anal. Biochem. 332:261-73 (2004)). he FP-based assay for XIAP BIR3 protein was described in detail previously (Nikolovska-Coleska et al., Anal. Biochem. 332:261-73 (2004)). Briefly, 5-carboxyfluorescein was coupled to the lysine side chain of a mutated Smac peptide with the sequence (AbuRPFK-Fam) and this fluorescently tagged peptide (named SM5F) was used as the fluorescent tracer in FP-based binding assay to XIAP BIR3. In general terms: Fluorescence polarisation rises when a labelled molecule tumbles more slowly, as on binding a larger partner.

Experiment [2] concerns the target Baculoviral IAP repeat-containing protein 2 (Homo sapiens, UniProt Q13490). Described as §1.

A value given as a limit tells only on which side of the number the result lay.

Baculoviral IAP repeat-containing protein 2, sequence (Q13490 whole entry, looked up, change not shown): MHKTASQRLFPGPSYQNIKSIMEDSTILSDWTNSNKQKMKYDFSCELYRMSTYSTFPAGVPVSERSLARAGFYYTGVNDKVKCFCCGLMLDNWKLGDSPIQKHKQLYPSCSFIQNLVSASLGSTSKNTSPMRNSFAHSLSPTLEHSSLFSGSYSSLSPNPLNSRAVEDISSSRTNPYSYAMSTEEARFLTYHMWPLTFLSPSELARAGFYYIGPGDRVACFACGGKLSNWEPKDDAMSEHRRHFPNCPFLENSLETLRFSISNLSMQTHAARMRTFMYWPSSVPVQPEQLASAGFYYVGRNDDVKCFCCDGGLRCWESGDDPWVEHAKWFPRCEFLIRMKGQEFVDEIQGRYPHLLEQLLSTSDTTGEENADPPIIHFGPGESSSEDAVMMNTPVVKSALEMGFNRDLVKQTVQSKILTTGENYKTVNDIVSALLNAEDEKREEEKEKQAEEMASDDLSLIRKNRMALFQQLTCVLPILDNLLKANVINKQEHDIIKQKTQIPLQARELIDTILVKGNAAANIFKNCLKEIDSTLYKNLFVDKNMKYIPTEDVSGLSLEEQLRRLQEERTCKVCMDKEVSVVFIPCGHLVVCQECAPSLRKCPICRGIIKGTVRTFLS
Baculoviral IAP repeat-containing protein 3, sequence (Q13489 whole entry, looked up, stated change not applied): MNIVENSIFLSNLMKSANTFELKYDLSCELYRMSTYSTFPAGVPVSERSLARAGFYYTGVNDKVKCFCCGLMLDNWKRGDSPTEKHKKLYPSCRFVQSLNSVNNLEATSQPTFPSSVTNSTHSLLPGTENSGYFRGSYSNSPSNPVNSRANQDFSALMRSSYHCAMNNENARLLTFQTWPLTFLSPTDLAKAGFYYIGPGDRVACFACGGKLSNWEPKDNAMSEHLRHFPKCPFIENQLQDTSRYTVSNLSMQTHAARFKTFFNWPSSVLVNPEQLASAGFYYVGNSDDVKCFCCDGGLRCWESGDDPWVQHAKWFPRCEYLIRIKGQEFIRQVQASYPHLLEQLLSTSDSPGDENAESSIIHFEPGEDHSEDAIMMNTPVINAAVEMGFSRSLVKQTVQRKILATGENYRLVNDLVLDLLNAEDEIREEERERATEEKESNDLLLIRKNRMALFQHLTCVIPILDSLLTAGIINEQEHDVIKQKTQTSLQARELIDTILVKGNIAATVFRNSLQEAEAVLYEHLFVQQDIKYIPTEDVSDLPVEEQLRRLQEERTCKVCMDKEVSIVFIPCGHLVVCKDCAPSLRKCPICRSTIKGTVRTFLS

The compound `CN[C@@H](C)C(=O)N[C@H]1CN(C(=O)CCCCCCCCCCC(=O)N2CC[C@H]3CC[C@@H](c4nc5c(-c6ccccc6)cccc5[nH]4)N3C(=O)[C@@H](NC(=O)[C@H](C)NC)C2)CC[C@H]2CC[C@@H](c3nc4c(-c5ccccc5)cccc4[nH]3)N2C1=O` came in with an IC50 in experiment [1] of under 50 nM.

For `C=CC(C=C)c1cccc2[nH]c([C@@H]3CC[C@@H]4CCN(C(=O)CCCCCCCCCCC(=O)N5CC[C@H]6CC[C@@H](c7nc8c(-c9ccccc9)cccc8[nH]7)N6C(=O)[C@@H](NC(=O)[C@H](C)NC)C5)C[C@H](NC(=O)[C@H](C)NC)C(=O)N43)nc12`, in experiment [2], the IC50 was under 50 nM.

The term IC50 denotes the concentration that inhibits the measured activity by half. A lower IC50 goes with greater potency in that assay.
